# Test results: patent US8900783B2, “Electrophotographic photoreceptor, process cartridge, and image forming apparatus” (Fuji Xerox Co., Ltd., priority 2013, dated 2014)
# Where two headings read alike, the source gives them in different places.
# Experiment: Evaluation on solubility with respect to solvent
# Format: physicochemical
# Conditions: organic solvent or mixture, thermodynamic from solid, stirred for one hour, visually checked
# Method: Here, Compound (C) is a specific non-charge transporting compound which is not the specific position isomer mixture.
# First, the Exemplary compounds and Compound (C) are respectively dissolved in tetrahydrofuran, and solubility of the solution is evaluated as follows.
# 1 g of Compound (C) is added to 10 ml of tetrahydrofuran at 20° C., the mixture is stirred for one hour, and solubility thereof is visually checked. A case where Compound (C) is dissolved is evaluated as A, a case where an insoluble part is slightly observed is evaluated as B, and a case where the solution yields white turbidity is evaluated as C.
# In addition, solubility thereof when the solvent is changed from tetrahydrofuran to toluene, xylene, dichloroethane, chloroform, and butyl acetate is evaluated.
structure (smiles),measurement,setting,value
C=Cc1ccc(COc2ccc(C(C)(c3ccc(OCc4ccc(C=C)cc4)cc3)c3ccc(OCc4ccc(C=C)cc4)cc3)cc2)cc1 [Compound (C)],solubility at 1 h,"1 g added to 10 ml of butyl acetate at 20° C., read-out: Evaluation on solubility Butyl acetate",< 100 mg/mL
same,solubility at 1 h,"1 g added to 10 ml of chloroform at 20° C., read-out: Evaluation on solubility Chloroform",> 100 mg/mL
same,solubility at 1 h,"1 g added to 10 ml of dichloroethane at 20° C., read-out: Evaluation on solubility Dichloroethane",> 100 mg/mL
same,solubility at 1 h,"1 g added to 10 ml of tetrahydrofuran at 20° C., read-out: Evaluation on solubility Tetrahydrofuran",> 100 mg/mL
same,solubility at 1 h,"1 g added to 10 ml of toluene at 20° C., read-out: Evaluation on solubility Toluene",< 100 mg/mL
same,solubility at 1 h,"1 g added to 10 ml of xylene at 20° C., read-out: Evaluation on solubility Xylene",< 100 mg/mL
